Reference: US20130029981A1, “COMPOUNDS, COMPOSITIONS, AND METHODS FOR CONTROLLING BIOFILMS” (Katholieke Universiteit Leuven, priority 2009, published 2013)
pIC50: −log10 of the molar value. Where two headings read alike, the source gives them in different places.

Columns and labels:
[1] = system: Pseudomonas aeruginosa PA14; assay: Static peg assay for prevention of biofilm formation (Calgary device, crystal violet); assay type: cell-based
Procedure, shortened: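 P. aeruginosa PA14 overnight TSB culture diluted 1:100 into broth with two-fold compound dilutions, biofilms grown 24 h static on polystyrene pegs of a Calgary device at 25 °C (TSB 1/20), 30 °C or 37 °C (CFA and/or LBNS). Biofilm quantified by crystal violet, extracted with 30% acetic acid, A570.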

S. Typhimurium ATCC14028 = assay: as above; assay type: cell-based, Salmonella Typhimurium
Procedure, shortened: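 Calgary 96-peg device, ca. 10^6 cells of ATCC14028 per well in TSB 1/20 for 24 h at 25° C (or 48 h at 16° C, medium and compound renewed at 24 h), or in CFA broth for 24 h at 37° C, static, with two-fold compound dilutions. Crystal violet stain, acetic acid extraction, OD570. IC50 from 2–3 independent experiments.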

[2] = P. aeruginosa PA14, 25° C., read-out: P. aeruginosa IC50 (biofilm formation)
[3] = S. Typhimurium ATCC 14028, 25° C., read-out: S. Typhimurium IC50 (biofilm formation)
[4] = 25° C., 24 hours, Table 15, read-out: (2) IC50 (biofilm inhibition)
[5] = 25° C., Table 16, read-out: P. aeruginosa IC50 (biofilm formation)
[6] = 25° C., 24 hours, Table 15, read-out: (1) IC50 (biofilm inhibition)
[7] = 25° C., Table 16, read-out: S. Typhimurium IC50 (biofilm formation)
[8] = S. Typhimurium ATCC 14028, 25° C., read-out: IC50 for biofilm inhibition (25° C.)
[9] = Table 21, P. aeruginosa PA14, 25° C., read-out: P. aeruginosa IC50 (biofilm formation)
[10] = Table 21, S. Typhimurium ATCC14028, 25° C., read-out: S. Typhimurium IC50 (biofilm formation)
[11] = 25° C., Table 18, read-out: P. aeruginosa IC50 (biofilm formation)
[12] = 25° C., Table 18, read-out: S. Typhimurium IC50 (biofilm formation)
[13] = 25° C., Table 17, read-out: P. aeruginosa IC50 (biofilm formation)
[14] = 25° C., Table 17, read-out: S. Typhimurium IC50 (biofilm formation)
[15] = Pseudomonas aeruginosa, PA14, 24 h, read-out: (2) IC50 (biofilm inhibition)
[16] = Salmonella enterica, 24 h, read-out: (1) IC50 (biofilm inhibition)
[17] = 25° C., Table 22, read-out: P. aeruginosa IC50 (biofilm formation)
[18] = 25° C., Table 22, read-out: S. Typhimurium IC50 (biofilm formation)

Compound: CCCCCCCCNc1ncc(-c2ccc(OC)cc2)[nH]1 [Compound 108]
- pIC50 [1, 2]: < 3.10
- pIC50 (S. Typhimurium ATCC14028; [3]): ~3.40

Compound: CCCCCCCCCN1c2nccc[n+]2CC1(O)c1ccc(Cl)cc1 (racemic) [Compound 22]
- pIC50 [1, 4]: 4.22
- pIC50 [1, 5]: 4.68
- pIC50 (S. Typhimurium ATCC14028; [6]): 4.74
- pIC50 (S. Typhimurium ATCC14028; [7]): 4.74

Compound: CCCCNc1nc(-c2ccc(F)cc2)c[nH]1 [R1=H, R2=Butyl, R3=H, R4=p-F—Ph]
- pIC50 ([1]; P. aeruginosa PA14, 25° C., read-out: IC50 for biofilm inhibition (25° C.)): 5.22
- pIC50 (S. Typhimurium ATCC14028; [8]): 4.80

Compound: CSc1ccc(-c2cnc(NC3CCCCC3)[nH]2)cc1 [Compound 126]
- pIC50 [1, 9]: 4.80
- pIC50 (S. Typhimurium ATCC14028; [10]): 3.72

Compound: CNc1ncc(-c2ccc(F)cc2)[nH]1 [Compound 97]
- pIC50 [1, 2]: 4.60
- pIC50 (S. Typhimurium ATCC14028; [3]): 3.99

Compound: OC1(c2ccc(Cl)cc2)C[n+]2cccnc2N1C1CCCC1 (centres unmarked) [Compound 63]
- pIC50 [1, 11]: 3.79
- pIC50 (S. Typhimurium ATCC14028; [12]): 4.38

Compound: CCCCCCCCN1c2nccc[n+]2CC1(O)c1ccc(-c2ccc(-c3ccccc3)cc2)cc1 (centres unmarked) [Compound 55]
- pIC50 [1, 4]: 4.57
- pIC50 [1, 13]: 3.47
- pIC50 (S. Typhimurium ATCC14028; [6]): ~4.28
- pIC50 (S. Typhimurium ATCC14028; [14]): ~4.28

Compound: CCCCNc1nc(-c2ccccc2)c[nH]1 [Compound 83]
- pIC50 [1, 2]: 4.50
- pIC50 (S. Typhimurium ATCC14028; [3]): 4.60

Compound: CCCCCCCC[n+]1c(-c2cccc(Br)c2)cn2cccnc21.[O-][Cl+3]([O-])([O-])[O-] [2-(3-Bromophenyl)-1-octylimidazo[1,2-a]pyrimidin-1-ium perchlorate]
- pIC50 [1, 15]: 5.16
- pIC50 (S. Typhimurium ATCC14028; [16]): 5.13

Compound: Nc1ncc(-c2ccc(F)cc2)[nH]1 [Compound 96]
- pIC50 [1, 2]: 4.82
- pIC50 (S. Typhimurium ATCC14028; [3]): 4.07

Compound: CCCCCCCCN1c2nccc[n+]2CC1(O)c1ccc(OC)cc1 (centres unmarked) [Compound 46]
- pIC50 [1, 4]: 4.87
- pIC50 [1, 5]: 4.04
- pIC50 (S. Typhimurium ATCC14028; [6]): 4.98
- pIC50 (S. Typhimurium ATCC14028; [7]): 4.98

Compound: OC1(c2ccccc2)C[n+]2cccnc2N1C1CCCCCC1 (centres unmarked) [Compound 59]
- pIC50 [1, 4]: 5.24
- pIC50 [1, 11]: 3.60
- pIC50 (S. Typhimurium ATCC14028; [6]): 4.07
- pIC50 (S. Typhimurium ATCC14028; [12]): 4.07

Compound: CC(C)CNc1ncc(-c2ccc([N+](=O)[O-])cc2)[nH]1 [Compound 94]
- pIC50 [1, 2]: 4.64
- pIC50 (S. Typhimurium ATCC14028; [3]): 5.42

Compound: CCCCCN1c2nccc[n+]2CC1(O)c1ccccc1 (racemic) [Compound 5]
- pIC50 [1, 5]: 3.25
- pIC50 (S. Typhimurium ATCC14028; [7]): 3.56

Compound: CCCCCN1c2nccc[n+]2CC1(O)c1ccc(Cl)cc1 (racemic) [Compound 18]
- pIC50 [1, 5]: 3.79
- pIC50 (S. Typhimurium ATCC14028; [7]): 4.49

Compound: Brc1ccc(-c2cnc(NC3CCCC3)[nH]2)cc1 [Compound 120]
- pIC50 [1, 9]: 5.14
- pIC50 (S. Typhimurium ATCC14028; [10]): 4.92

Compound: CC(C)CN1c2nccc[n+]2CC1(O)c1ccccc1 (racemic) [Compound 4]
- pIC50 [1, 5]: 3.54
- pIC50 (S. Typhimurium ATCC14028; [7]): 3.88

Compound: CNc1nc(-c2ccc([N+](=O)[O-])cc2)c[nH]1 [Compound 91]
- pIC50 [1, 2]: 4.25
- pIC50 (S. Typhimurium ATCC14028; [3]): 3.77

Compound: CCCCCNc1ncc(-c2ccc(Br)cc2)[nH]1 [Compound 104]
- pIC50 [1, 2]: 4.99
- pIC50 (S. Typhimurium ATCC14028; [3]): 5.51

Compound: CCCCCCCCN1c2nccc[n+]2CC1(O)c1cccc(Br)c1 (centres unmarked) [Compound 56]
- pIC50 [1, 4]: ~4.88
- pIC50 [1, 13]: 4.54
- pIC50 (S. Typhimurium ATCC14028; [6]): 5.15
- pIC50 (S. Typhimurium ATCC14028; [14]): 5.15

Compound: COc1cccc(CCNc2ncc(-c3ccc([N+](=O)[O-])cc3)[nH]2)c1 [Compound 129]
- pIC50 [1, 17]: 5.43
- pIC50 (S. Typhimurium ATCC14028; [18]): 4.72
- pIC50 (S. Typhimurium ATCC14028; [8]): 4.82

Compound: Nc1nc(-c2ccccc2)c[nH]1 [Compound 81]
- pIC50 [1, 2]: 4.14
- pIC50 (S. Typhimurium ATCC14028; [3]): 3.89

Compound: CCCCCCCC[n+]1c(-c2ccc(OC)cc2)cn2cccnc21.[O-][Cl+3]([O-])([O-])[O-] [2-(4-Methoxyphenyl)-1-octylimidazo[1,2-a]pyrimidin-1-ium perchlorate]
- pIC50 [1, 15]: 5.06
- pIC50 (S. Typhimurium ATCC14028; [16]): 4.46

Compound: Nc1nc(-c2ccc(Cl)cc2)c[nH]1 [Compound 85]
- pIC50 [1, 2]: 5.46
- pIC50 (S. Typhimurium ATCC14028; [3]): 4.80

Compound: CCCCCCCC[n+]1c(-c2ccc(-c3ccc([N+](=O)[O-])cc3)cc2)cn2cccnc21.[O-][Cl+3]([O-])([O-])[O-] [1-octyl-2-(4′-nitro[1,1-biphenylyl]-4-yl)-imidazo[1,2-a]pyrimidin-1-ium perchlorate]
- pIC50 [1, 4]: 5.98
- pIC50 (S. Typhimurium ATCC14028; [6]): 5.83

Compound: CCCCCCN1c2nccc[n+]2CC1(O)c1ccc(Cl)cc1 (racemic) [Compound 19]
- pIC50 [1, 4]: 4.69
- pIC50 [1, 5]: 4.10
- pIC50 (S. Typhimurium ATCC14028; [6]): 4.86
- pIC50 (S. Typhimurium ATCC14028; [7]): 4.86

Compound: CCCCCCCCN1c2nccc[n+]2CC1(O)c1ccc(Cl)c(Cl)c1 (centres unmarked) [Compound 49]
- pIC50 [1, 4]: ~4.91
- pIC50 [1, 5]: 4.94
- pIC50 (S. Typhimurium ATCC14028; [6]): 5.15
- pIC50 (S. Typhimurium ATCC14028; [7]): 5.15

Compound: OC1(c2ccc(Cl)cc2)C[n+]2cccnc2N1C1CCCCCCC1 (centres unmarked) [Compound 66]
- pIC50 [1, 4]: 4.81
- pIC50 [1, 11]: 4.64
- pIC50 (S. Typhimurium ATCC14028; [6]): 4.90
- pIC50 (S. Typhimurium ATCC14028; [12]): 4.90

Compound: OC1(c2ccccc2)C[n+]2cccnc2N1C1CCC1 (centres unmarked) [Compound 57]
- pIC50 [1, 11]: < 3.40
- pIC50 (S. Typhimurium ATCC14028; [12]): 3.31

Compound: Fc1ccc(-c2cnc(NCc3ccc4c(c3)OCO4)[nH]2)cc1 [Compound 132]
- pIC50 [1, 17]: 3.34
- pIC50 (S. Typhimurium ATCC14028; [18]): 4.18
- pIC50 (S. Typhimurium ATCC14028; [8]): 4.17

Compound: CCCCCCCCN1c2nccc[n+]2C[C@@]1(O)c1cccc2ccccc12 [Compound 52]
- pIC50 ([1]; Pseudomonas aeruginosa, PA14, 25° C., Table 17, read-out: P. aeruginosa IC50 (biofilm formation)): 4.82
- pIC50 ([1]; Pseudomonas aeruginosa, PA14, 24 h, 25° C., 24 hours, Table 15, read-out: (2) IC50 (biofilm inhibition)): 4.78
- pIC50 (S. Typhimurium ATCC14028; Salmonella enterica, 25° C., 24 hours, Table 15, read-out: (1) IC50 (biofilm inhibition)): 4.83
- pIC50 (S. Typhimurium ATCC14028; Salmonella enterica, 25° C., Table 17, read-out: S. Typhimurium IC50 (biofilm formation)): 4.83

Compound: OC1(c2ccccc2)C[n+]2cccnc2N1C1CCCCC1 (centres unmarked) [Compound 58]
- pIC50 [1, 11]: 4.06
- pIC50 (S. Typhimurium ATCC14028; [12]): 3.86

Compound: CCCCN1c2nccc[n+]2CC1(O)c1ccc(Cl)cc1 (racemic) [Compound 16]
- pIC50 [1, 5]: 4.60
- pIC50 (S. Typhimurium ATCC14028; [7]): 4.53

Compound: OC1(c2ccc(Cl)cc2)C[n+]2cccnc2N1C1CCC1 (centres unmarked) [Compound 62]
- pIC50 [1, 11]: 3.43
- pIC50 (S. Typhimurium ATCC14028; [12]): 3.92

Compound: CCCCCCCN1c2nccc[n+]2CC1(O)c1ccc(Cl)cc1 (racemic) [Compound 20]
- pIC50 [1, 4]: ~4.90
- pIC50 [1, 5]: 4.43
- pIC50 (S. Typhimurium ATCC14028; [6]): 5.18
- pIC50 (S. Typhimurium ATCC14028; [7]): 5.17

Compound: CCCCCCCC[n+]1c(-c2ccc(S(C)(=O)=O)cc2)cn2cccnc21.[O-][Cl+3]([O-])([O-])[O-] [1-octyl-2-(4-methylsulfonylphenyl)-imidazo[1,2-a]pyrimidin-1-ium perchlorate]
- pIC50 [1, 15]: 4.30
- pIC50 (S. Typhimurium ATCC14028; [16]): 4.09

Compound: CCCCCCCCCCCCN1c2nccc[n+]2CC1(O)c1ccccc1 (racemic) [Compound 12]
- pIC50 [1, 4]: 5.02
- pIC50 [1, 5]: < 3.10
- pIC50 (S. Typhimurium ATCC14028; [6]): 4.56
- pIC50 (S. Typhimurium ATCC14028; [7]): 4.56

Compound: CCCNc1ncc(-c2ccc(Cl)c(Cl)c2)[nH]1 [Compound 109]
- pIC50 [1, 2]: 4.56
- pIC50 (S. Typhimurium ATCC14028; [3]): 4.96

Compound: CCNc1ncc(-c2ccc([N+](=O)[O-])cc2)[nH]1 [Compound 92]
- pIC50 [1, 2]: 3.98
- pIC50 (S. Typhimurium ATCC14028; [3]): 3.77

Compound: CC(C)CNc1nc(-c2ccc(Cl)cc2)c[nH]1 [Compound 86]
- pIC50 [1, 2]: 6.05
- pIC50 (S. Typhimurium ATCC14028; [3]): 5.70
